From patent US8916183B2, “Pesticidal compositions and processes related thereto” (priority 2012, dated 2014) come the findings set out here.

What all share (type): in vivo
For test [1], the system named is Beet Armyworm (BAW) (Spodoptera exigua). The test is described as follows: Bioassay on beet armyworm (BAW), 128-well diet tray assay. Conditions: Spodoptera exigua; beet armyworm, 50 μg/cm^2; read-out: % Mortality BAW 50 μg/cm^2. As to the method: (§1) Certain molecules disclosed in this document were tested against BAW and CEW using procedures described in the following examples. In the reporting of the results, the “BAW & CEW Rating Table” was used (See Table Section).
Bioassays on BAW (Spodoptera exigua)
Bioassays on BAW were conducted using a 128-well diet tray assay. […] Trays were covered with a clear self-adhesive cover and held at 25° C., 14:10 light-dark for five to seven days. Percent mortality was recorded for the larvae in each well; activity in the eight wells was then averaged. The results are indicated in the table entitled “Table 5: Biological Results” (See Table Section).

Test [2] deals with Corn Earworm (CEW) (Helicoverpa zea). The test is described as follows: Bioassay on corn earworm (CEW), 128-well diet tray assay. Conditions: Helicoverpa zea; corn earworm, 50 μg/cm^2; read-out: % Mortality CEW 50 μg/cm^2. As to the method:
as §1
Bioassays on CEW (Helicoverpa zea)
Bioassays on CEW were conducted using a 128-well diet tray assay. […] Trays were covered with a clear self-adhesive cover and held at 25° C., 14:10 light-dark for five to seven days. Percent mortality was recorded for the larvae in each well; activity in the eight wells was then averaged. The results are indicated in the table entitled “Table 5: Biological Results” (See Table Section).

The subject of test [3] is Green Peach Aphid (GPA) (Myzus persicae). The experiment in a line: Bioassay on green peach aphid (GPA), foliar spray on cabbage seedlings. To be noted: green peach aphid, 200 ppm, read-out: % Mortality GPA 200 ppm. As to the method: Certain molecules disclosed in this document were tested against GPA using procedures described in the following example. In the reporting of the results, the “GPA Rating Table” was used (See Table Section).
Cabbage seedlings grown in 3-inch pots, with 2-3 small (3-5 cm) true leaves, were used as test substrate. The seedlings were infested with 20-50 GPA (wingless adult and nymph stages) one day prior to chemical application. Four pots with individual seedlings were used for each treatment. Test compounds (2 mg) were dissolved in 2 mL of acetone/methanol (1:1) solvent, forming stock solutions of 1000 ppm test compound. […] A hand-held aspirator-type sprayer was used for spraying a solution to both sides of […] leaves until runoff. Reference plants (solvent check) were sprayed with the diluent only containing 20% by volume of acetone/methanol (1:1) solvent. Treated plants were held in a holding room for three days at approximately 25° C. and ambient relative humidity (RH) prior to grading. Evaluation was conducted by counting the number of live aphids per plant under a microscope. […] Corrected % Control=100*(X−Y)/X • where • X=No. of live aphids on solvent check plants and • Y=No. of live aphids on treated plants
The results are indicated in the table entitled “Table 5: Biological Results” (See Table Section).

Regarding `Cc1ccccc1-n1c(C)cs/c1=N\N=C\c1ccc(-c2ncn(-c3ccc(OC(F)(F)F)cc3)n2)cc1` [Compound 173C], the mortality at 50 µg/cm2 in test [1] and in test [2] was 50 to 100% throughout. The mortality at 200 ppm in test [3] is 0%.
Regarding `CC(C)c1ccccc1N1/C(=N/N=C/c2ccc(-c3ncn(-c4ccc(C(F)(C(F)(F)F)C(F)(F)F)cc4)n3)cc2)SCC1(C)O` (stereo not shown) [Compound 260C], the mortality at 50 µg/cm2 in test [1] and in test [2] was 50 to 100% each time. Further, the mortality at 200 ppm in test [3] amounted to 0%.
Turning to `CC(C)c1ccccc1N1CCCS/C1=N\N=C\c1ccc(-c2ncn(-c3ccc(OC(F)(F)F)cc3)n2)cc1` [Compound 177C], the mortality at 50 µg/cm2 in test [1] and in test [2] was 50 to 100% throughout. The mortality at 200 ppm in test [3] was found to be 0%.
Regarding `Cc1cccc(C)c1/N=C(/N/N=C/c1ccc(-c2ncn(-c3ccc(OC(F)(F)F)cc3)n2)cc1)SCC(=O)NCCCN` [Compound 66C], the mortality at 50 µg/cm2 in test [1] and in test [2] was 50 to 100% throughout. For the same molecule, the mortality at 200 ppm in test [3] is 0 to 80%.
For `CCc1cccc(C)c1N1/C(=N/N=C/c2ccc(-c3ncn(-c4ccc(OC(F)(F)F)cc4)n3)cc2)SCCC1C` (stereo not shown) [Compound 213C], the mortality at 50 µg/cm2 in test [1] and in test [2] was 50 to 100% each time. For the same molecule, the mortality at 200 ppm in test [3] was 0 to 80%.
In the case of `Cc1cccc(C)c1/N=C(/N/N=C/c1ccc(-c2ncn(-c3ccc(OC(F)(F)F)cc3)n2)cc1)SCOC(=O)OC(C)C` [Compound 24C], the mortality at 50 µg/cm2 in test [1] and in test [2] was 50 to 100% throughout. The mortality at 200 ppm in test [3] was in the range of 0 to 80%.
For the molecule `Cc1cccc(C)c1/N=C(/N/N=C/c1ccc(-c2ncn(-c3ccc(OC(F)(F)F)cc3)n2)cc1)SCC(=O)N1CCN(C(=O)OC(C)(C)C)CC1` [Compound 57C], the mortality at 50 µg/cm2 in test [1] and in test [2] was 50 to 100% each time. Further, in test [3], the mortality at 200 ppm was 0 to 80%.
Turning to `CCOc1ccccc1N1CCS/C1=N\N=C\c1ccc(-c2ncn(-c3ccc(OC(F)(F)F)cc3)n2)cc1` [Compound 146C], the mortality at 50 µg/cm2 in test [1] and in test [2] was 50 to 100% in each case. Besides, in test [3], the mortality at 200 ppm was 0 to 80%.
Take `CC(C)Cc1ccccc1N1CCCS/C1=N\N=C\c1ccc(-c2ncn(-c3ccc(OC(F)(F)F)cc3)n2)cc1` [Compound 193C]: the mortality at 50 µg/cm2 in test [1] and in test [2] was 50 to 100% in each case. Besides, the mortality at 200 ppm in test [3] is 0 to 80%.
As to `CCCS/C(=N\c1c(Cl)cccc1Cl)N/N=C/c1ccc(-c2ncn(-c3ccc(OC(F)(F)F)cc3)n2)cc1` [Compound 3C], the mortality at 50 µg/cm2 in test [1] and in test [2] was 50 to 100% throughout. Also, in test [3], the mortality at 200 ppm is 0%.
For `CC1CS/C(=N\N=C\c2ccc(-c3ncn(-c4ccc(OC(F)(F)F)cc4)n3)cc2)N1c1c(Cl)cccc1Cl` (stereo not shown) [Compound 157C], the mortality at 50 µg/cm2 in test [1] and in test [2] was 50 to 100% each time. Also, the mortality at 200 ppm in test [3] lay within 0 to 80%.
Take `Cc1cccc(Cl)c1N1CCCS/C1=N\N=C\c1ccc(-c2ncn(-c3ccc(OC(F)(F)F)cc3)n2)cc1` [Compound 196C]: the mortality at 50 µg/cm2 in test [1] and in test [2] was 50 to 100% in each case. Further, the mortality at 200 ppm in test [3] was 0%.
With `CCc1ccccc1N1CCCS/C1=N\N=C\c1ccc(-c2ncn(-c3ccc(OC(F)(F)F)cc3)n2)cc1` [Compound 185C], the mortality at 50 µg/cm2 in test [1] and in test [2] was 50 to 100% throughout. The mortality at 200 ppm in test [3] amounted to 0%.
Turning to `CC(C)c1ccccc1N1CCCCS/C1=N\N=C\c1ccc(-c2ncn(-c3ccc(OC(F)(F)F)cc3)n2)cc1` [Compound 212C], the mortality at 50 µg/cm2 in test [1] and in test [2] was 50 to 100% in each case. For the same molecule, the mortality at 200 ppm in test [3] was 0%.
In the case of `CCOCC(=O)OCS/C(=N\c1c(Cl)cc(OC)cc1Cl)N/N=C/c1ccc(-c2ncn(-c3ccc(OC(F)(F)F)cc3)n2)cc1` [Compound 32C], the mortality at 200 ppm in test [3] was 0 to 80%.
As for `COCCC(=O)S/C(=N\c1c(C)cccc1C)N/N=C/c1ccc(-c2ncn(-c3ccc(OC(F)(F)F)cc3)n2)cc1` [Compound 21C], the mortality at 200 ppm in test [3] was 0%.
`COc1cc(C)c(/N=C(/N/N=C(\C)c2ccc(-c3ncn(-c4ccc(OC(F)(F)F)cc4)n3)cc2)SCOC(=O)C(C)C)c(C)c1` [Compound 26C]: the mortality at 200 ppm in test [3] was 0%.
In the case of `Fc1cccc(Cl)c1N1CCS/C1=N\N=C\c1ccc(-c2ncn(-c3ccc(OC(F)(F)F)cc3)n2)cc1` [Compound 143C], the mortality at 50 µg/cm2 in test [1] and in test [2] was 50 to 100% throughout.
`CCCc1ccccc1N1C(=O)C(C)S/C1=N\N=C\c1ccc(-c2ncn(-c3ccc(OC(F)(F)F)cc3)n2)cc1` (stereo not shown) [Compound 128C]: the mortality at 50 µg/cm2 in test [1] and in test [2] was 50 to 100% throughout.
Regarding `O=C1CS/C(=N\N=C\c2ccc(-c3ncn(-c4ccc(OC(F)(F)F)cc4)n3)cc2)N1c1c(Br)cccc1Br` [Compound 99C], the mortality at 50 µg/cm2 in test [1] and in test [2] was 50 to 100% in each case.
For `Cc1cs/c(=N\N=C\c2ccc(-c3ncn(-c4ccc(OC(F)(F)F)cc4)n3)cc2)n1-c1ccccc1C(C)C` [Compound 176C], the mortality at 50 µg/cm2 in test [1] and in test [2] was 50 to 100% in each case.
Regarding `CCC(C)c1ccccc1N1/C(=N/N=C/c2ccc(-c3ncn(-c4ccc(OC(F)(F)F)cc4)n3)cc2)SCC1(O)C(F)(F)F` (stereo not shown) [Compound 247C], the mortality at 50 µg/cm2 in test [1] and in test [2] was 50 to 100% throughout.
Consider `CC(C)c1ccccc1/N=C1\SCCCN1/N=C/c1ccc(-c2ncn(-c3ccc(C(F)(F)F)cc3)n2)cc1` [Compound 87C, (2Z,NE)-2-((2-isopropylphenyl)imino)-N-(4-(1-(4-(trifluoromethyl)phenyl)-1H-1,2,4-triazol-3-yl)benzylidene)-1,3-thiazinan-3-amine], for which the mortality at 200 ppm in test [3] was 0 to 80%.
As to `FC(F)(F)Oc1ccc(-n2cnc(-c3ccc(/C=N/N=C4\SCCCN4c4ccccc4OC(F)(F)F)cc3)n2)cc1` [Compound 199C], the mortality at 50 µg/cm2 in test [1] and in test [2] was 50 to 100% each time.
As to `COc1cc(Cl)c(/N=C(/N/N=C/c2ccc(-c3ncn(-c4ccc(OC(F)(F)F)cc4)n3)cc2)SCOC(=O)C(C)C)c(Cl)c1` [Compound 34C], the mortality at 200 ppm in test [3] is 0 to 80%.
For the molecule `CCOC(=O)c1ccccc1N1C(=O)CS/C1=N\N=C\c1ccc(-c2ncn(-c3ccc(OC(F)(F)F)cc3)n2)cc1` [Compound 107C], the mortality at 50 µg/cm2 in test [1] and in test [2] was 0% throughout.
Turning to `Fc1cccc(F)c1N1CCS/C1=N\N=C\c1ccc(-c2ncn(-c3ccc(OC(F)(F)F)cc3)n2)cc1` [Compound 148C], the mortality at 50 µg/cm2 in test [1] and in test [2] was 50 to 100% each time.
Regarding `CC1CS/C(=N\N=C\c2ccc(-c3ncn(-c4ccc(OC(F)(F)F)cc4)n3)cc2)N(c2c(Cl)cccc2C(F)(F)F)C1` (stereo not shown) [Compound 215C], the mortality at 50 µg/cm2 in test [1] and in test [2] was 50 to 100% each time.
`CC1CS/C(=N\N=C\c2ccc(-c3ncn(-c4ccc(OC(F)(F)F)cc4)n3)cc2)N1c1ccccc1C(C)(C)C` (stereo not shown) [Compound 165C]: the mortality at 50 µg/cm2 in test [1] and in test [2] was 50 to 100% each time.
As for `Cc1cccc(C)c1N1C(=O)CS/C1=N\N=C\c1ccc(-c2cnn(-c3ccc(OC(F)(F)F)cc3)c2)cc1` [Compound 104C], the mortality at 50 µg/cm2 in test [1] and in test [2] was 50 to 100% each time.
As to `Cc1cs/c(=N\N=C\c2ccc(-c3ncn(-c4ccc(OC(F)(F)F)cc4)n3)cc2)n1-c1c(Cl)cccc1C(F)(F)F` [Compound 169C], the mortality at 50 µg/cm2 in test [1] and in test [2] was 50 to 100% throughout.
For the molecule `Cc1cc(Cl)cc(C)c1N1C(=O)CS/C1=N\N=C\c1ccc(-c2ncn(-c3ccc(OC(F)(F)F)cc3)n2)cc1` [Compound 105C], the mortality at 50 µg/cm2 in test [1] and in test [2] was 50 to 100% in each case.
Consider `Cc1cccc(C)c1/N=C(/N/N=C/c1ccc(-c2ncn(-c3ccc(OC(F)(F)F)cc3)n2)cc1)SCOC(=O)C(C)OCC(F)(F)F` (stereo not shown) [Compound 39C], for which the mortality at 200 ppm in test [3] was found to be 0%.
On to `CC(C)c1cc(F)ccc1N1/C(=N/N=C/c2ccc(-c3ncn(-c4ccc(OC(F)(F)F)cc4)n3)cc2)SCC1(C)O` (stereo not shown) [Compound 258C], for which the mortality at 50 µg/cm2 in test [1] and in test [2] was 50 to 100% throughout.
